According to the NIST ThermoML archive (doi:10.1016/j.jct.2017.01.016):

Experiment: xn = mol fraction of the nth substance listed
Details: 101 kPa, Liquid; for viscosity: Capillary tube (Ostwald / Ubbelohde) method; for speed of sound: Frequency=3 MHz, Linear variable-path acoustic interferometer

Cc1cc(C)cc(C)c1 [1,3,5-trimethylbenzene] + C1COCCO1
Details	speed of sound [m/s]	viscosity [mPa·s]
293.15 K, x2 = 0	1360.4	0.7056
293.15 K, x2 = 0.0696	1354.2	0.7332
293.15 K, x2 = 0.1408	1348.2	0.7648
293.15 K, x2 = 0.2098	1342.8	0.7974
293.15 K, x2 = 0.28	1337.8	0.8326
293.15 K, x2 = 0.3558	1333.1	0.8728
293.15 K, x2 = 0.4276	1329.3	0.9131
293.15 K, x2 = 0.5066	1326.5	0.9597
293.15 K, x2 = 0.5801	1325	1.005
293.15 K, x2 = 0.6548	1325.4	1.054
293.15 K, x2 = 0.7227	1327.5	1.099
293.15 K, x2 = 0.7936	1332	1.149
293.15 K, x2 = 0.8663	1340	1.202
293.15 K, x2 = 0.9319	1351	1.252
298.15 K, x2 = 0	1339.8	0.6592
298.15 K, x2 = 0.0696	1333.4	0.6835
298.15 K, x2 = 0.1408	1327.5	0.7112
298.15 K, x2 = 0.2098	1322.1	0.7398
298.15 K, x2 = 0.28	1317.1	0.7712
298.15 K, x2 = 0.3558	1312.5	0.8066
298.15 K, x2 = 0.4276	1308.9	0.8422
298.15 K, x2 = 0.5066	1306	0.8838
298.15 K, x2 = 0.5801	1304.5	0.9244
298.15 K, x2 = 0.6548	1304.7	0.9678
298.15 K, x2 = 0.7227	1306.5	1.009
298.15 K, x2 = 0.7936	1310.8	1.053
298.15 K, x2 = 0.8663	1318.5	1.101
298.15 K, x2 = 0.9319	1329	1.146
303.15 K, x2 = 0	1319.6	0.6188
303.15 K, x2 = 0.0696	1313.2	0.6405
303.15 K, x2 = 0.1408	1307.3	0.6646
303.15 K, x2 = 0.2098	1301.9	0.6896
303.15 K, x2 = 0.28	1297.1	0.7168
303.15 K, x2 = 0.3558	1292.5	0.7483
303.15 K, x2 = 0.4276	1288.9	0.78
303.15 K, x2 = 0.5066	1286	0.8167
303.15 K, x2 = 0.5801	1284.5	0.8532
303.15 K, x2 = 0.6548	1284.6	0.8918
303.15 K, x2 = 0.7227	1286.4	0.9287
303.15 K, x2 = 0.7936	1290.3	0.9688
303.15 K, x2 = 0.8663	1297.6	1.012
303.15 K, x2 = 0.9319	1307.8	1.052
308.15 K, x2 = 0	1300.2	0.5792
308.15 K, x2 = 0.0696	1294	0.5994
308.15 K, x2 = 0.1408	1287.9	0.6212
308.15 K, x2 = 0.2098	1282.6	0.6438
308.15 K, x2 = 0.28	1277.6	0.6685
308.15 K, x2 = 0.3558	1273	0.6966
308.15 K, x2 = 0.4276	1269.2	0.7253
308.15 K, x2 = 0.5066	1266.3	0.7589
308.15 K, x2 = 0.5801	1264.6	0.7918
308.15 K, x2 = 0.6548	1264.7	0.8274
308.15 K, x2 = 0.7227	1266.2	0.8612
308.15 K, x2 = 0.7936	1270	0.8982
308.15 K, x2 = 0.8663	1277	0.9376
308.15 K, x2 = 0.9319	1286.7	0.9752
313.15 K, x2 = 0	1280.4	0.5422
313.15 K, x2 = 0.0696	1274.3	0.5609
313.15 K, x2 = 0.1408	1268.3	0.5813
313.15 K, x2 = 0.2098	1262.9	0.6022
313.15 K, x2 = 0.28	1258	0.6248
313.15 K, x2 = 0.3558	1253.3	0.651
313.15 K, x2 = 0.4276	1249.6	0.6774
313.15 K, x2 = 0.5066	1246.4	0.7084
313.15 K, x2 = 0.5801	1244.7	0.7391
313.15 K, x2 = 0.6548	1244.6	0.7717
313.15 K, x2 = 0.7227	1246.1	0.8032
313.15 K, x2 = 0.7936	1249.9	0.8372
313.15 K, x2 = 0.8663	1256.5	0.874
313.15 K, x2 = 0.9319	1265.7	0.9088
318.15 K, x2 = 0	1263	0.5066
318.15 K, x2 = 0.0696	1256.9	0.5246
318.15 K, x2 = 0.1408	1250.8	0.5436
318.15 K, x2 = 0.2098	1245.3	0.5634
318.15 K, x2 = 0.28	1240.3	0.5846
318.15 K, x2 = 0.3558	1235.4	0.6092
318.15 K, x2 = 0.4276	1231.5	0.6342
318.15 K, x2 = 0.5066	1228.3	0.6632
318.15 K, x2 = 0.5801	1226.4	0.692
318.15 K, x2 = 0.6548	1226	0.7224
318.15 K, x2 = 0.7227	1227.1	0.7515
318.15 K, x2 = 0.7936	1230.5	0.7836
318.15 K, x2 = 0.8663	1236.7	0.8178
318.15 K, x2 = 0.9319	1245.3	0.8501
